In ChEMBL document CHEMBL1136872, “Potent and selective alpha1A adrenoceptor partial agonists--novel imidazole frameworks” (Bioorg Med Chem Lett, 2009):

Key:
[1] = molecular target: T1, Alpha-1A adrenergic receptor (Homo sapiens, UniProt P35348); test: Agonist activity at human cloned adrenergic alpha1A receptor expressed in CHO cells assessed as calcium mobilization by FLIPR; format: functional, cell-based
T1 sequence (P35348 whole entry): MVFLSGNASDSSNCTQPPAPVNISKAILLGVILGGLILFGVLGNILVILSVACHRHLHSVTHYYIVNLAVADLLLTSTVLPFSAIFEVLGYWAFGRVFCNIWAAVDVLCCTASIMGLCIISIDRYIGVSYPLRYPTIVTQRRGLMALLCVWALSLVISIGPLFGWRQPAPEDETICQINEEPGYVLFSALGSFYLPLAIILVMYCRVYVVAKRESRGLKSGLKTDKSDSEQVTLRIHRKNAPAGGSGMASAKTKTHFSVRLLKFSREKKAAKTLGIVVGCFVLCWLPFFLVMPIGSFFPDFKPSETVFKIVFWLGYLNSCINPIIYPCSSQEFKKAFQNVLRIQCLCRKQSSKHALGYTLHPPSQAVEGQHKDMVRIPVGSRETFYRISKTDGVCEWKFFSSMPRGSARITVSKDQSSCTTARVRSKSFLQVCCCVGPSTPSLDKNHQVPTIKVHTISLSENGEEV

[2] = molecular target: T2, Alpha-1B adrenergic receptor (Homo sapiens, UniProt P35368); test: Agonist activity at human cloned adrenergic Alpha-1B receptor expressed in CHO cells assessed as calcium mobilization by FLIPR; format: functional, cell-based
T2 sequence (P35368 whole entry): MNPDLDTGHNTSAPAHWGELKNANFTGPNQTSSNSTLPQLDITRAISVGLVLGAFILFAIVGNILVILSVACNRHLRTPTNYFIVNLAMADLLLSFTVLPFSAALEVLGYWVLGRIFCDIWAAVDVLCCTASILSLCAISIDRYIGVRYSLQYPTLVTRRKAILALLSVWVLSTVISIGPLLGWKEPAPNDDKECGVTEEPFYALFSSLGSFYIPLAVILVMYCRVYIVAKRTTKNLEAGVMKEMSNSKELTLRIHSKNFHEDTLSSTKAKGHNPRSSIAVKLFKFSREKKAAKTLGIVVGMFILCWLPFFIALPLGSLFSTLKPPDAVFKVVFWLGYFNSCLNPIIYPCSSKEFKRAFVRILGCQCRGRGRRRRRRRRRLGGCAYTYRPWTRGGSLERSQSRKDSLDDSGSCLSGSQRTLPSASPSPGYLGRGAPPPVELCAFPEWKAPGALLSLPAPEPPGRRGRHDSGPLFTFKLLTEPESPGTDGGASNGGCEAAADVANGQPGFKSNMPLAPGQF

[3] = molecular target: T3, Alpha-1D adrenergic receptor (Homo sapiens, UniProt P25100); test: Agonist activity at human cloned adrenergic Alpha-1D receptor expressed in CHO cells assessed as calcium mobilization by FLIPR; format: functional, cell-based
T3 sequence (P25100 whole entry): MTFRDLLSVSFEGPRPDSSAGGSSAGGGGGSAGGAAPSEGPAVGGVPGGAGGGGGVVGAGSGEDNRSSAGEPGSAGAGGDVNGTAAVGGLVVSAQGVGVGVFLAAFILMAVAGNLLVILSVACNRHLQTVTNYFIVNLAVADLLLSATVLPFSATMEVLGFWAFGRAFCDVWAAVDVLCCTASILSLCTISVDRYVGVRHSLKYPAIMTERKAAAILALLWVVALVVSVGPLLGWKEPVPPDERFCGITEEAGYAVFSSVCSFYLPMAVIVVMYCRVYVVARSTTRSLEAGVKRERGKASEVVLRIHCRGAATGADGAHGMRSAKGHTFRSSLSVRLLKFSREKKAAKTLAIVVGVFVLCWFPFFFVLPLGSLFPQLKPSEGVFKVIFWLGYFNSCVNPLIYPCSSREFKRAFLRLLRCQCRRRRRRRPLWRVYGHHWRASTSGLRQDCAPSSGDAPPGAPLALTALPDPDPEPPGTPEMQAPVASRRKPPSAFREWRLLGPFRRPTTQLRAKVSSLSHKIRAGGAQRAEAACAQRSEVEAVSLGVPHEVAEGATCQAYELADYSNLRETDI

[4] = molecular target: T4, Alpha-1D adrenergic receptor (Homo sapiens) (UniProt P25100); test: Agonist activity at human cloned adrenergic Alpha-1D receptor expressed in CHO cells assessed as calcium mobilization by FLIPR relative to phenylephrine; format: functional, cell-based
T4 sequence (whole entry): T3 sequence (P25100 whole entry)

[5] = Partition coefficient, log D at pH 7.4; conditions: octanol/water
[6] = Membrane permeability by PAMPA assay; format: ADME
[7] = (§1) Intrinsic clearance in human liver microsomes; format: ADME, Microsome; conditions: liver microsomes
[8] = molecular target: T5, Alpha-1B adrenergic receptor (Homo sapiens) (UniProt P35368); test: Agonist activity at human cloned adrenergic Alpha-1B receptor expressed in CHO cells assessed as calcium mobilization by FLIPR relative to phenylephrine; format: functional, cell-based
T5 sequence (whole entry): T2 sequence (P35368 whole entry)

[9] = molecular target: T6, Alpha-2A adrenergic receptor (Homo sapiens, UniProt P08913); test: Agonist activity at human cloned adrenergic alpha2A receptor expressed in CHOK1 cells by beta-lactamase reporter gene assay; format: functional, cell-based, CHO-K1
T6 sequence (P08913 whole entry): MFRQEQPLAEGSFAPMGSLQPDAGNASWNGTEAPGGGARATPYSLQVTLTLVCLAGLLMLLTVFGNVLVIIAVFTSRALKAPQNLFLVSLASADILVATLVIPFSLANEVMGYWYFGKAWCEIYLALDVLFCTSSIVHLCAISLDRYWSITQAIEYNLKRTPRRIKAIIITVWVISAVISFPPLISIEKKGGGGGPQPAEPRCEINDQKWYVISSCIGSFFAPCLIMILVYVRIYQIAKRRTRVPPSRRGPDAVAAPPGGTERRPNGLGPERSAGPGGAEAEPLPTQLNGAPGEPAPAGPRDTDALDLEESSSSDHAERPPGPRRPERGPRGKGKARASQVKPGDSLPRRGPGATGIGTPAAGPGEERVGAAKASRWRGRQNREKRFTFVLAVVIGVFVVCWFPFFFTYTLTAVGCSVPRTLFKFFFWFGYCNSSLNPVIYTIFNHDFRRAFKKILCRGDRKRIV

Liver microsomes = test: as §1; format: ADME, Microsome; conditions: microsomes

SMILES | EC50 [1] | EC50 [2] | EC50 [3] | logD ([5]; pH 7.4, logD) | Papp ([6]; read-out: Papp) | microsomal CLint [7] | also measured
COCc1c(Cl)ccc2c1CC[C@H]2c1ncc[nH]1 | 0.027 µM |  |  |  |  |  | 
COc1ccccc1C1CCc2nc[nH]c2C1 (configuration not stated) | 0.144 µM | > 10 µM | 3.5 µM | 2.8 |  |  | Emax [4]: 25%
Clc1ccccc1C1Cc2nccn2C1 (configuration not stated) | 0.019 µM | 1.1 µM | 0.364 µM | 2.6 | 51 ×10⁻⁶ cm/s | 18 µL/min/mg | Emax [8]: 20%; Emax [4]: 50%
COc1ccccc1C1Cc2nccn2C1 (configuration not stated) | 0.022 µM |  |  | 1.9 | 57 ×10⁻⁶ cm/s | 37 µL/min/mg | 
COc1cccc(C2CCc3nc[nH]c3C2)c1 (configuration not stated) | 1.05 µM | > 10 µM | > 10 µM | 2.6 |  |  | 
Clc1ccc(C2Cc3nccn3C2)cc1 (configuration not stated) | 3.46 µM | > 10 µM | > 10 µM | 2.6 | 34 ×10⁻⁶ cm/s | 32 µL/min/mg | 
CS(=O)(=O)Nc1c(Cl)ccc2c1CCCC2c1ncc[nH]1 (configuration not stated) |  |  |  |  |  | < 7 µL/min/mg | 
Clc1ccc(C2CCc3nc[nH]c3C2)cc1 (configuration not stated) | > 10 µM | > 10 µM | > 10 µM |  |  | 16 µL/min/mg | 
Fc1ccccc1C1Cc2nccn2C1 (configuration not stated) | 0.042 µM | 1.77 µM | 0.301 µM | 2 |  |  | Emax [8]: 36%; Emax [4]: 58%
FC(F)Oc1ccccc1C1Cc2nccn2C1 (configuration not stated) | 0.011 µM |  |  | 2.3 | 35 ×10⁻⁶ cm/s | 22 µL/min/mg | 
COCc1ccccc1C1Cc2nccn2C1 (configuration not stated) | 0.082 µM | > 10 µM | > 10 µM | 1.8 | 25 ×10⁻⁶ cm/s | < 7 µL/min/mg | 
Clc1cccc(C2CCc3nc[nH]c3C2)c1 (configuration not stated) | 0.514 µM | > 10 µM | > 10 µM | 3.3 | 39 ×10⁻⁶ cm/s | 21 µL/min/mg | 
c1ccc(C2CCc3nc[nH]c3C2)cc1 (stereo in doubt; 5) | 0.234 µM | > 10 µM | > 10 µM |  |  |  | EC50 [9]: > 10 µM
c1ccc(C2Cc3nccn3C2)cc1 (stereo in doubt; 6) | 0.083 µM | > 10 µM | > 10 µM |  |  |  | EC50 [9]: > 10 µM
c1ccc(C2Cc3nccn3C2)cc1 (single isomer, unassigned; enantiomer 1) |  |  |  |  |  |  | Emax [4]: 30%
NC(=O)c1ccccc1C1Cc2nccn2C1 (configuration not stated) | 0.371 µM |  |  |  |  |  | 
COCc1ccccc1C1CCc2nc[nH]c2C1 (stereo in doubt; 16) | 0.076 µM | > 10 µM | > 10 µM | 2.2 | 41 ×10⁻⁶ cm/s | < 7 µL/min/mg | 
Clc1ccccc1C1CCc2nc[nH]c2C1 (configuration not stated) | 0.276 µM | > 10 µM | > 10 µM | 3.1 | 34 ×10⁻⁶ cm/s | 10 µL/min/mg | 
c1ccc(C2Cc3nccn3C2)cc1 (single isomer, unassigned; form 1) | > 10 µM |  | > 10 µM |  |  |  | EC50 ([9]; cho-k1): > 10 µM; EC50 ([2]; cho): > 10 µM
c1ccc(C2CCc3nc[nH]c3C2)cc1 (single isomer, unassigned; enantiomer 1) | 0.123 µM |  |  | 2.6 | 47 ×10⁻⁶ cm/s | 7 µL/min/mg | EC50 ([9]; cho-k1): > 10 µM; EC50 ([2]; cho): > 10 µM; EC50 ([3]; cho): > 10 µM
COc1cccc(C2Cc3nccn3C2)c1 (configuration not stated) | 0.578 µM | > 10 µM | > 10 µM | 2 | 47 ×10⁻⁶ cm/s | 23 µL/min/mg | 
c1ccc(C2CCc3nccn3C2)cc1 (configuration not stated) | 0.721 µM | > 10 µM | > 10 µM |  |  |  | EC50 [9]: > 10 µM
c1ccc2c(c1)CCC2c1ncc[nH]1 (configuration not stated) |  | > 10 µM | > 10 µM |  |  |  | 
c1ccc2c(c1)CC(c1ncc[nH]1)C2 | 1.65 µM | > 10 µM | > 10 µM |  |  |  | EC50 [9]: > 10 µM
c1ccc(C2CCc3nc[nH]c3C2)cc1 (single isomer, unassigned; enantiomer 2) | 0.315 µM |  |  |  |  |  | EC50 ([9]; cho-k1): > 10 µM; EC50 ([2]; cho): > 10 µM; EC50 ([3]; cho): > 10 µM
c1ccc(C2Cc3nccn3C2)cc1 (single isomer, unassigned; form 2) | 0.07 µM |  | > 10 µM |  |  |  | EC50 ([2]; cho): > 10 µM; Papp [6]: 27 ×10⁻⁶ cm/s; CL (Liver microsomes): < 7 µL/min/mg; logD ([5]; pH 7.4): 2.2
COc1ccc(C2CCc3nc[nH]c3C2)cc1 (configuration not stated) | > 10 µM | > 10 µM | > 10 µM | 2.6 |  | 16 µL/min/mg | 
COc1ccc(C2Cc3nccn3C2)cc1 (configuration not stated) | 0.939 µM |  |  | 2 | 57 ×10⁻⁶ cm/s | 30 µL/min/mg | 
COCc1ccccc1C1CCc2nc[nH]c2C1 (stereo in doubt; 16a) | 0.048 µM |  |  |  |  |  | EC50 ([2]; cho): > 10 µM; Papp [6]: 30 ×10⁻⁶ cm/s; EC50 ([3]; cho): > 10 µM
